Key:
Format in all cases: biochemical
[1] = biological target: T1, Sulfolobus solfataricus MAT (sMAT) (Saccharolobus solfataricus, UniProt Q980S9); test: Kinetic measurements of sMAT reactions
T1 sequence (Q980S9 1-404): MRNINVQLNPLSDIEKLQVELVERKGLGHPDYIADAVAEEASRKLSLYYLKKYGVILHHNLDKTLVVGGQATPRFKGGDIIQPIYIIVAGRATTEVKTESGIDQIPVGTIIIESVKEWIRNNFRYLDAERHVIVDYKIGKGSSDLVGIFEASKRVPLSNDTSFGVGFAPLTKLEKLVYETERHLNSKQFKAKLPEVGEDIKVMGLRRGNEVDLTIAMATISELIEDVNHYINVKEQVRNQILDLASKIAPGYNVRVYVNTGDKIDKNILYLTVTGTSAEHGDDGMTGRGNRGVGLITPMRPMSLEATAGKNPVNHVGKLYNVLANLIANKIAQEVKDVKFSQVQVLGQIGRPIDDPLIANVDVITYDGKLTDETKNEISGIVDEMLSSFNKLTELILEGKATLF
Protocol: Kinetic Measurements of sMAT Reactions: Pseudo first-order kinetics was assessed in triplicate under saturating ATP (2.5 mM) and variable L-methionine/L-ethionine (0.007, 0.013, 0.033, 0.066, 0.133, 0.333, 0.66, 1.33 mM) and saturating L-methionine/L-ethionine (2.5 mM) and variable ATP (0.013, 0.033, 0.066, 0.133, 0.333, 0.66, 1.33 mM) concentrations. Reactions were performed in buffer containing 25 mM Tris pH 8.0, 40 mM KCl and 5 mM MgCl2, and 0.5 μg purified sMAT was added and incubated at 37° C. or 65° C. in a final volume of 20 μL. Reaction products were analyzed using RP-HPLC method above and product quantification was carried out using standard curve generated by commercial SAM. The kinetic curves were fit to the Michaelis-Menton equation using Prism software.

[2] = biological target: human MAT II catalytic alpha subunit alone (hMAT2A) (Homo sapiens, UniProt P31153); test: MAT assay, turnover of S/Se-Met analogs to S(Se)AM analogs (RP-HPLC end point); conditions: 2 mM Met analog, 1 mM ATP, 5 μM MAT, pH 8, 4 h, 37° C., average of two assays
[3] = biological target: human MAT I catalytic subunit alpha (hMAT1A) (Homo sapiens, UniProt Q00266); test: as above; conditions: 2 mM Met analog, 1 mM ATP, 5 μM MAT, pH 8, 4 h, 37° C.; average of two assays
[4] = biological target: human MAT II catalytic alpha and regulatory beta subunit (hMAT2) (Homo sapiens, UniProt P31153); test: as above; conditions: 2 mM Met analog, 1 mM ATP, 5 μM MAT, pH 8, 4 h, 37° C.; average of two assays
[5] = biological target: Escherichia coli MAT (eMAT) (Escherichia coli, UniProt P0A817); test: as above; conditions: 2 mM Met analog, 1 mM ATP, 5 μM MAT, pH 8, 4 h, 37° C., average of two assays

CCSCC[C@H](N)C(=O)O [compound 3, (2S)-2-amino-4-(ethylsulfanyl)butanoic acid]
kcat ([1]; 37° C. or 65° C., L-methionine versus L-ethionine): similar
Km ([1]; compared to native substrate L-methionine): higher Km values
Percentage Turn-over hMAT2A [2]: 90%
Percentage Turn-over hMAT2A ([2]; listed as ethionine): ~100%
Percentage Turn-over hMAT1A [3]: 75%
Percentage Turn-over hMAT2 [4]: 88%
Percentage Turn-over eMAT [5]: 8%
Percentage Turn-over eMAT ([5]; listed as ethionine): 10%
